Experimental data taken from patent publication US12258338B2, “Modulators of the integrated stress response pathway” (EVOTEC INTERNATIONAL GMBH, priority 2019, dated 2025).
≈ marks a conversion by molar mass, not a printed value. Like-named read-outs stand apart in the source and are kept apart here.

What was measured:
ATF4 = experiment: HEK-ATF4 High Content Imaging assay (prevention of Tunicamycin induced ISR; ATF4 signal ratio between nucleus and cytoplasm); assay type: cell-based; settings: Homo sapiens; Wild-type HEK293 cells, Tunicamycin induced ISR, 6 h; read-out: IIEK-ATF4 Activity
Protocol: HEK-ATF4 High Content Imaging Assay
Example compounds were tested in the HEK-ATF4 High Content Imaging assay to assess their pharmacological potency to prevent Tunicamycin induced ISR. Wild-type HEK293 cells were plated in 384-well imaging assay plates at a density of 12,000 cells per well in growth medium (containing DMEM/F12, 10% FBS, 2 mM L-Glutamine, 100 U/mL Penicillin-100 μg/mL Streptomycin) and incubated at 37° C., 5% CO2. 24 h later, the medium was changed to 50 μL assay medium per well (DMEM/F12, 0.3% FBS, 2 mM L-Glutamine, 100 U/mL Penicillin-100 μg/mL Streptomycin). Example compounds were serially diluted in DMSO, spotted into intermediate plates and prediluted with assay medium containing 3.3 μM Tunicamycin to give an 11-fold excess of final assay concentration. In addition to the example compound testing area, the plates also contained multiples of control wells for assay normalization purposes, wells containing Tunicamycin but no example compounds (High control), as well as wells containing neither example compound nor Tunicamycin (Low control). The assay was started by transferring 5 μL from the intermediate plate into the assay plates, followed by incubation for 6 h at 37° C., 5% CO2. Subsequently, cells were fixed (4% PFA in PBS, 20 min at r.t.) and submitted to indirect ATF4 immunofluorescence staining (primary antibody rabbit anti ATF4, clone D4B8, Cell Signaling Technologies; secondary antibody Alexa Fluor 488 goat anti-rabbit IgG (H+L), Thermofisher Scientific). Nuclei were stained using Hoechst dye (Thermofisher Scientific), and plates were imaged on an Opera Phenix High Content imaging platform equipped with 405 nm and 488 nm excitation. Finally, images were analyzed using script based algorithms. The main readout HEK-ATF4 monitored the ATF4 signal ratio between nucleus and cytoplasm. Tunicamycin induced an increase in the overall ATF4 ratio signal, which was prevented by ISR modulating example compounds. In addition, HEK-CellCount readout was derived from counting the number of stained nuclei corresponding to healthy cells. This readout served as an internal toxicity control.

[1] = molecular target: T1, human ERG potassium channel (hERG) (Homo sapiens, UniProt Q12809); experiment: hERG channel tail current recording using in vitro Rapid ICE (automated patch-clamp, QPatch HTX); assay type: cell-based; settings: Table 26
T1 construct: expressed in transfected cells; host or cells: HEK293, stably transfected, tetracycline-inducible promoter
Protocol: Protocol—Measure of the Effect on hERG Channel by Tail Current Recording Using In Vitro Rapid ICE
The potency of the example compounds in inhibiting human ERG potassium channel (hERG) tail current was assessed in a recombinant HEK293 cell line stably transfected with hERG cDNA under an inducible promoter, using Rapid ICE (rapid ion channel electrophysiology) assay. Rapid ICE is an automated patch-clamp assay utilizing the QPatch HTX system (Sophion Bioscience A/S). Briefly, inducible HEK hERG cells were cultivated in minimum essential medium supplemented with 10% FBS, 1% non-essential amino acids, 1% sodium pyruvate, 2 mM 1-glutamine, 15 μg/mL blasticidin, and 100 μg/mL hygromycin. hERG channel expression induction was obtained by adding 10 μg/mL tetracycline for 24, 48, or 72 h before recordings.
On the day of the experiment, cells were detached with TrypLE and prepared to be loaded on the instrument. Cells were resuspended in 7 mL of Serum-Free Media containing 25 mM Hepes and soybean trypsin inhibitor and immediately placed in the cell storage tank of the machine. The composition of the extracellular buffer was (mM): NaCl 137, KCl 4, CaCl2 1.8, MgCl2 1.0, d-glucose 10, N-2-hydroxyethylpiperazine-N′-2-ethanesulfonic acid (HEPES) 10, pH 7.4 with 1 M NaOH. The composition of the intracellular solution was (mM): KCl 130, MgCl2 1.0, ethylene glycol-bis(β-aminoethyl ether)-N,N,N′,N′-tetraacetic acid (EGTA) 5, MgATP 5, HEPES 10, pH 7.2 with 1 M KOH. The voltage protocol included the following steps: step from −80 to −50 mV for 200 ms, +20 mV for 4.8 s, step to −50 mV for 5 s, then step to the holding potential of −80 mV. Compounds were dissolved in DMSO and diluted in extracellular buffer to achieve final test concentrations (0.3, 3, and 30 μM) in 0.3% DMSO. The voltage protocol was run and recorded continuously during the experiment. The vehicle, corresponding to 0.3% DMSO in extracellular buffer was then applied for 3 min, followed by the test substance in triplicate. The standard combined exposure time was 5 min. The average of tail current amplitude values recorded from four sequential voltage pulses was used to calculate for each cell the effect of the test substance by calculating the residual current (% control) compared with vehicle pretreatment. Data were reported as % inhibition for each concentration tested, and IC50 values were estimated using QPatch software. At least two cells were tested, and even more if results diverged.

[2] = Thermodynamic (Equilibrium) solubility in selected buffer; assay type: physicochemical; settings: aqueous buffer, thermodynamic from solid, Table 25
Protocol: Protocol—Thermodynamic (Equilibrium) Solubility in Selected Buffer
Example compounds were tested in the Thermodynamic (Equilibrium) solubility in selected buffer assay. The test compound, in powder form, was weighted into a 4 mL glass vial and a calculated volume of selected medium was added to reach the target concentration of the solubility test (1 mg/mL). The solution was then stirred overnight at r.t. protected from the light. The solution was filtered through a 0.45 μm PTFE membrane at ambient temperature. An aliquot of the resulting filtrate was quantified using UPLC-UV method described below against a reference solution of the test compound, 0.8 mg/mL in DMSO. Media compositions: Phosphate buffer 50 mM (pH=2.0) […] of NaH2PO4, H2O in 200 mL of ultrapurified water adjusted at pH 2 with phosphoric acid 85%; Acetate buffer 50 mM (pH=5.5) 820 mg of anhydrous sodium acetate in 200 mL of ultrapurified water adjusted at pH 5.5 with acetic acid 99.8%; Phosphate buffer 50 mM (pH=7.4) 40.5 mL of Na2HPO4 0.1 M solution+9.5 mL of NaH2PO4 0.1 M solution. Analytical conditions: UPLC-UV-MS analyses were performed with a Waters Acquity UPLC HClass-PDA-QDa system using a reverse phase Acquity BEH C18 column (2.1 mm×50 mm, 1.7 μm; temperature: 40° C.) and a gradient of 10-95% B (A=0.1% formic acid in H2O; B=0.05% formic acid in ACN) over 1.8 min then 100% B for 0.8 min, with an injection volume of 0.4 μL at flow rate of 0.65 mL/min. UV chromatograms were recorded at 220 nm, 254 nm and 290 nm using a photo diode array detector. Mass spectra were recorded in the 150 to 900 M/Z range at a sampling rate of 10 scans per sec using a QDa detector. Data were integrated using Empower®3 software. Data Analysis: Equilibrium solubility of the test compound in the selected medium was calculated through the ratio of the surface area of the UV chromatographic peak of the compound in the filtrate to the surface of the UV chromatographic peak of the compound in the reference solution.

T1 sequence (Q12809 whole entry): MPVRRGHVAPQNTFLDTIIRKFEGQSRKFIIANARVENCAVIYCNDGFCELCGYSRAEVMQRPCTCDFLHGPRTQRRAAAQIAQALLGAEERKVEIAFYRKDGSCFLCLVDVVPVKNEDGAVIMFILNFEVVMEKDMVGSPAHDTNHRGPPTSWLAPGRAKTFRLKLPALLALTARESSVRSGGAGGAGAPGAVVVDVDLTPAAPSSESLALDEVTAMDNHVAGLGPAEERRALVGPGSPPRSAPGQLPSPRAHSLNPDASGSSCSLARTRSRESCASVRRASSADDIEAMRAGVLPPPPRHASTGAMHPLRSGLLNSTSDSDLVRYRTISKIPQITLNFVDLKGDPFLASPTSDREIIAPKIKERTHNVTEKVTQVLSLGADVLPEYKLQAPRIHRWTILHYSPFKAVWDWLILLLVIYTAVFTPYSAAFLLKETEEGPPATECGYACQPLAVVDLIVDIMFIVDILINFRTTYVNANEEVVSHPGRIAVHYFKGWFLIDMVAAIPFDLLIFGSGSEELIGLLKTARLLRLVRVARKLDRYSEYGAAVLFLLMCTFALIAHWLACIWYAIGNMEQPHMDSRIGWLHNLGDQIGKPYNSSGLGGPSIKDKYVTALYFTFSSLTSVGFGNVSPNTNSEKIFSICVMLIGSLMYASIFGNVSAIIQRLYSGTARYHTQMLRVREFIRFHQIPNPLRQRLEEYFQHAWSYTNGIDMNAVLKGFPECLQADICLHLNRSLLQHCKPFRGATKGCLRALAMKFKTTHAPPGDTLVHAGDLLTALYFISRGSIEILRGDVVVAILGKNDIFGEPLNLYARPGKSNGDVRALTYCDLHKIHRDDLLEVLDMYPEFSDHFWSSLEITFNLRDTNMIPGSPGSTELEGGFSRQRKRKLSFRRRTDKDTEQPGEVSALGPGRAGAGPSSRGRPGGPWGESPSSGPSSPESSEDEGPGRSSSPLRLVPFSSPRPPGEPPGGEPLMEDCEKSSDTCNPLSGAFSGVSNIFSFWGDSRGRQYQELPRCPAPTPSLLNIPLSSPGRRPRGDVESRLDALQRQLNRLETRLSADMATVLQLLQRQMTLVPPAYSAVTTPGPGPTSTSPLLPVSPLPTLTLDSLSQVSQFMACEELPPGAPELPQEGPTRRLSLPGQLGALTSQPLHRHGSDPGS

| IC50 (ATF4) [nM] | solubility ([2]; acetate buffer 50 mM, pH 5.5, read-out: Solubility (μg/mL) pH 5.5) [µg/mL] | solubility ([2]; phosphate buffer 50 mM, pH 2.0, read-out: Solubility (μg/mL) pH 2.0) [µg/mL] | solubility ([2]; phosphate buffer 50 mM, pH 7.4, read-out: Solubility (μg/mL) pH 7.4) [µg/mL] | SMILES | IC50 [1] [nM] |
| --- | --- | --- | --- | --- | --- |
| 1 to 500 |  |  |  | COc1cc(OCC(=O)N[C@H]2CC[C@H](c3nnc(OCCOC(F)(F)F)o3)NC2)ccc1C(F)(F)F [Example 15, 2-[3-methoxy-4-(trifluoromethyl)phenoxy]-N-[(3S,6R)-6-{5-[2-(trifluoromethoxy)ethoxy]-1,3,4-oxadiazol-2-yl}piperidin-3-yl]acetamide] | > 5000 |
| 1 to 500 |  |  |  | O=C(COc1ccc(Cl)c(F)c1)N[C@H]1CC[C@H](c2nnc(-c3ccc(Cl)cn3)o2)NC1 [Example 53, 2-(4-chloro-3-fluorophenoxy)-N-[(3S,6R)-6-[5-(5-chloropyridin-2-yl)-1,3,4-oxadiazol-2-yl]piperidin-3-yl]acetamide] | 1000 to 5000 |
| 500 to 2000 |  |  |  | CCOCCOc1nnc([C@H]2CC[C@H](NC(=O)COc3ccc(Cl)c(F)c3)CN2)o1 [Example 81, 2-(4-chloro-3-fluorophenoxy)-N-[(3S,6R)-6-[5-(2-ethoxyethoxy)-1,3,4-oxadiazol-2-yl]piperidin-3-yl]acctamide] | > 5000 |
| 2000 to 15000 |  |  |  | CC(CC(F)(F)F)Oc1nnc([C@H]2CC[C@H](NC(=O)COc3ccc(Cl)c(F)c3)CN2)o1 (stereo partly drawn) [Example 64, 2-(4-chloro-3-fluorophenoxy)-N-[(3S,6R)-6-{5-[(4,4,4-trifluorobutan-2-yl)oxy]-1,3,4-oxadiazol-2-yl}piperidin-3-yl]acetamide] | > 5000 |
| 1 to 500 |  |  |  | O=C(COc1ccc(Cl)c(F)c1)N[C@H]1CC[C@H](c2nnc(-c3ccc(Cl)cc3)o2)NC1 [Example 40, 2-(4-chloro-3-fluorophenoxy)-N-[(3S,6R)-6-[5-(4-chlorophenyl)-1,3,4-oxadiazol-2-yl]piperidin-3-yl]acetamide] | 1 to 1000 |
| 1 to 500 |  |  |  | O=C(COc1ccc(Cl)c(F)c1)N[C@@H]1CC[C@@H](c2nnc(N3CC(OC(F)(F)F)C3)o2)NC1 [Example 43] | > 5000 |
| 1 to 500 |  |  |  | O=C(COc1ccc(Cl)c(F)c1)N[C@H]1CC[C@H](c2nnc(OCCO[C@H]3CC3(F)F)o2)NC1 (single isomer, unassigned) [Example 103] | > 5000 |
| 1 to 500 |  |  |  | O=C(COc1ccc(Cl)c(F)c1)N[C@@H]1CC[C@@H](c2nnc(OCCC(F)(F)F)o2)NC1 [Example 42, 2-(4-chloro-3-fluorophenoxy)-N-[(3R,6S)-6-[5-(3,3,3-trifluoropropoxy)-1,3,4-oxadiazol-2-yl]piperidin-3-yl]acetamide] | 1000 to 5000 |
| 1 to 500 |  |  |  | CCN1C[C@@H](NC(=O)COc2ccc(Cl)c(F)c2)CC[C@@H]1c1nnc(-c2ccc(Cl)cc2)o1 [Example 46, 2-(4-chloro-3-fluorophenoxy)-N-[(3S,6R)-6-[5-(4-chlorophenyl)-1,3,4-oxadiazol-2-yl]-1-ethylpiperidin-3-yl]acetamide] | 1 to 1000 |
| 500 to 2000 |  |  |  | N#Cc1cc(OCC(=O)N[C@H]2CC[C@H](c3nnc(OCCOC(F)(F)F)o3)NC2)ccc1Cl [Example 29, 2-(4-chloro-3-cyanophenoxy)-N-[(3S,6R)-6-{5-[2-(trifluoromethoxy)ethoxy]-1,3,4-oxadiazol-2-yl}piperidin-3-yl]acetamide] | > 5000 |
|  |  |  |  | CC(Oc1ccc(Cl)cc1)C(=O)N[C@H]1CC[C@H](c2nnc(-c3ccc(C(F)(F)F)cc3)o2)NC1 (stereo partly drawn) [Example 4, 2-(4-chlorophenoxy)-N-[(3S,6R)-6-{5-[4-(trifluoromethyl)phenyl]-1,3,4-oxadiazol-2-yl}piperidin-3-yl]propanamide] | 1 to 1000 |
| 2000 to 15000 |  |  |  | CN(CCOC(F)(F)F)c1nnc([C@H]2CC[C@H](NC(=O)COc3ccc(Cl)c(F)c3)CN2)o1 [Example 94, 2-(4-chloro-3-fluorophenoxy)-N-[(3S,6R)-6-(5-{methyl[2-(trifluoromethoxy)ethyl]amino}-1,3,4-oxadiazol-2-yl)piperidin-3-yl]acetamide] | > 5000 |
| 500 to 2000 |  |  |  | CC(C)(C)OC(=O)N1C[C@@H](NC(=O)COc2ccc(Cl)c(F)c2)CC[C@@H]1c1nnc(OCCOC(F)(F)F)o1 [Example 76, tert-butyl (2R,5S)-5-[2-(4-chloro-3-fluorophenoxy)acetamido]-2-{5-[2-(trifluoromethoxy)ethoxy]-1,3,4-oxadiazol-2-yl}piperidine-1-carboxylate] | > 5000 |
| 1 to 500 |  |  |  | O=C(COc1ccc(Cl)c(F)c1)N[C@H]1CC[C@H](c2nnc(OCCC(F)(F)F)o2)NC1 [Example 33, 2-(4-chloro-3-fluorophenoxy)-N-[(3S,6R)-6-[5-(3,3,3-trifluoropropoxy)-1,3,4-oxadiazol-2-yl]piperidin-3-yl]acetamide] | 1000 to 5000 |
| 500 to 2000 |  |  |  | O=C(COc1ccc(Cl)c(F)c1)N[C@H]1CC[C@H](c2nnc(C3CC(OC4CC4)C3)o2)NC1 (stereo partly drawn) [Example 59, 2-(4-chloro-3-fluorophenoxy)-N-[(3S,6R)-6-[5-(3-cyclopropoxycyclobutyl)-1,3,4-oxadiazol-2-yl]piperidin-3-yl]acetamide] | > 5000 |
| 500 to 2000 | 4 (≈ 8.52 µM) | 945 (≈ 2010 µM) | 2 (≈ 4.26 µM) | Cn1nc(-c2nnc([C@H]3CC[C@H](NC(=O)COc4ccc(Cl)c(F)c4)CN3)o2)cc1Cl [Example 51, N-[(3S,6R)-6-[5-(5-chloro-1-methyl-1H-pyrazol-3-yl)-1,3,4-oxadiazol-2-yl]piperidin-3-yl]-2-(4-chloro-3-fluorophenoxy)acetamide] |  |
